From patent publication US6068851A, “Formulation for use in the prevention of pathogen induced diseases including HIV and HSV” (Infectio Recherche, Inc., priority 1999, dated 2000)

Legend:
[1] = test system: vaginal and cervical mucosae of rabbits; test: In vivo tolerance/toxicity, vaginal and cervical mucosae, daily intravaginal application; design: species or system New Zealand rabbits; settings: once daily intravaginal for two weeks; nonoxynol-9 dose 125 mg
Experimental: (§1) Studies have been performed to evaluate the tolerance and toxicity of the poloxamer 407 gel (19.5% w/w) when applied locally once daily for two weeks to the vaginal and cervical mucosae of New Zealand rabbits. The gel was applied in its fluid state to allow a good penetration into the irregularly shaped surfaces of the mucosae. Biopsies of the vaginal and cervical mucosae were performed on days 0, 4, 7 and 14 for histological examinations. […] Such toxicity induced by nonoxynol-9 might favour the entry of pathogens.

[2] = test system: cervical mucosa of rabbits; test: Histopathology of cervix after daily intravaginal application; type: in vivo, New Zealand rabbits; settings: once daily intravaginal for two weeks
Experimental: as §1

[3] = background statement; cited from earlier work
human cervical cells = test: Viability of human cervical cells with nonoxynol-9, free or in poloxamer gel; type: cell-based
Experimental: FIG. 2 represents the viability of human cervical cells following incubation with different concentrations of nonoxynol-9 either as free drug or incorporated into the poloxamer gel (19.5% w/w).

[4] = Drug release from poloxamer gel (diffusion cell, dialysis membrane, radiolabelled drugs); type: physicochemical; settings: body temperature vs 4° C.; data not shown
Description: The poloxamer gel could act as a sustained-drug release system which prolong the local microbicidal activity of the incorporated active agents. We have studied the release of antiviral agents (AZT, ddC, ddi, foscarnet, acyclovir) from our poloxamer gel formulations using radiolabelled drugs and a diffusion cell made of two compartments separated by a dialysis membrane. […] This is explained by the creation of large openings in the intermicellar network of the gel at high temperature which in turn increase the release of the incorporated active agents.

nonoxynol-9
toxicity to vaginal and cervical mucosae [1]: very toxic as evidenced by the presence of epithelial disruption, irritation, necrosis and bleeding
histopathology of cervical mucosa [2]: large accumulation of eosinophiles in the sub-mucosa and induce a major loss of integrity of the epithelial cells
local inflammation and ulcerations [3]: induce local inflammation and ulcerations
toxicity to human cervical cells (viability) (human cervical cells; different concentrations of nonoxynol-9, free or in gel): highly toxic to the human cervical cells in a dose-dependent manner
concentration at which toxicity starts (human cervical cells; free nonoxynol-9, human cervical cells): 150 µg/mL

Nc1ccn([C@H]2CC[C@@H](CO)O2)c(=O)n1 [ddC, 2'-3'-dideoxycytidine]
release of drugs from the poloxamer gel [4]: increased at body temperature when compared to 4 °C

O=C(O)P(=O)(O)O [foscarnet]
release of drugs from the poloxamer gel [4]: increased at body temperature when compared to 4 °C

Nc1nc2c(ncn2COCCO)c(=O)[nH]1 [acyclovir]
release of drugs from the poloxamer gel [4]: increased at body temperature when compared to 4 °C

O=c1[nH]cnc2c1ncn2[C@H]1CC[C@@H](CO)O1 [ddi, 2'-3'-dideoxyinosine]
release of drugs from the poloxamer gel [4]: increased at body temperature when compared to 4 °C

Cc1cn([C@H]2C[C@H](N=[N+]=[N-])[C@@H](CO)O2)c(=O)[nH]c1=O [AZT]
release of drugs from the poloxamer gel [4]: increased at body temperature when compared to 4 °C
